This assay has as its system SKBR3 (breast cancer cell line). Briefly: In vitro cell killing activity of ADCs, SKBR3. In kind it is cell-based. Conditions: Homo sapiens, SK-BR-3, incubation 72 hours, ADC DAR 8.0. An excerpt:
Referring to the process of Example 13, the linker-drug conjugate mc-AAN-Exatecan was conjugated to a HER2 antibody, an EGFR antibody, and a non-specific binding antibody (Anti-HEL) respectively to prepare the corresponding ADCs. […] The cell killing activity was detected.

Each structure is given as a SMILES string.

As a reminder, the IC50 is the concentration at which inhibition is half-maximal. Higher therefore signals weaker potency in that assay. On to `CC[C@@]1(O)C(=O)OCc2c1cc1n(c2=O)Cc2c-1nc1cc(F)c(C)c3c1c2[C@@H](N)CC3` [Extecan, Exatecan], for which the IC50 worked out at 2.02 nM. That is a single-digit nanomolar value.

The values are drawn from patent publication EP4659764A1, “LINKER DRUG, AND PREPARATION METHOD AND USE OF ANTIBODY-DRUG CONJUGATE THEREOF” (Lepu Biopharma Co., Ltd., priority 2023, dated 2024).
